Experimental data reported in patent US7456220B2, “Immunodulatory compositions and methods of use thereof” (priority 1999, dated 2008).

System: gentamicin resistant Escherichia coli
Test: Rat sepsis model, mortality vs. saline control (Example 15)
Type: in vivo, Wistar rats
Details: Gentamicin 2 mg, gel 2 ml I.M., 24 hours before challenge, Group D mixture, timing not given
Description: The model system utilizes Wistar rats surgically implanted with an inoculum of intestinal contents from other rats. The inoculum is prepared in a manner which simulates the microbiologic parameters of the human colon. This is accomplished by placing rats on a diet of lean ground beef for two weeks, and then harvesting, homogenizing and freezing aliquots of prepared intestinal contents for subsequent use. The clinical end points for evaluation in this model are mortality, while microbiologic end points include blood and peritoneal cultures. The general experimental design and methods are as follows.
Male, Wistar, virus antibody free (VAF) rats (Charles River Laboratories, Wilmington, Mass.), weighing 175-200 grams, are utilized for all experiments. All animals are housed, five per cage, within a VAF facility, and given food and water ad libitum, except for those animals used for preparation of the meat-fed cecal inoculum (see below). Animal experiments are carried out according to the guidelines of the Harvard Medical Area Standing Committee on Animals, in facilities accredited by the American Association for the Accreditation of Laboratory Animal Care.
The innoculum for this study is prepared as described in A. Onderdonk et al., Experimental intra-abdominal abscesses in rats; quantitative bacteriology of infected animals. Infection and Immunity, 10:1256-9 (1974); and A. Onderdonk et al., Experimental intra-abdominal abscesses in rats: development of animal model. Infection and Immunity, 10:1256-1259 (1974). Briefly, cecal contents from meat-fed rats are combined with peptone-yeast-glucose broth to form a slurry. This slurry is filtered through gauze to remove large particulate material, aliquoted and frozen at −80° C. until used. Preliminary testing of this inoculum is performed to determine the proper dilution of the inoculum to yield a mortality of 60%-70% in an untreated group.
Animals are anesthetized with Nembutal (50 mg/Kg), and prepared for surgical implantation of the inoculum by shaving the abdomen and applying an iodine solution. A 3-4 cm midline incision is made through the skin and anterior abdominal wall, and a gelatin capsule containing 0.5 mL of the inoculum is inserted into the pelvic region. The incision is closed with one 3-0 suture, and the animals are observed four times per day for the first 48 hours, and every eight hours thereafter. Visibly moribund animals are humanely sacrificed with CO2.
Groups of twenty animals each are implanted with the inoculum described above. For each experiment, a control group of sham-treated animals is employed. For experiments in which quantitative blood and peritoneal cultures are obtained, sufficient additional animals are implanted to allow for such cultures, but mortality in these groups is not included in the clinical outcome calculations, due to the additional manipulation of the animals. Surviving animals from each group are sacrificed after seven days.
A comparison of groups with regard to mortality is made by chi-square analysis as supplied on commercially available statistical software (Instat, GraphPad Software, San Diego, Calif.). A comparison group mean bacterial count is made using Student's T test.
Animals were divided into Groups A, B, C and D, with each Group containing 15 animals. All groups were challenged with 2.629 ml gentamicin resistant Escherichia coli, 0.32 ml Dextran Sulfate, and 29.051 ml Peptone Yeast Glucose. Group A was treated 2 hours after challenge, while Groups B and C were treated 24 hours before challenge. Group A was treated with 2 ml saline I.M.; Group B was treated with 2 mg Gentamicin; Group C was treated with 2 ml HA/CMC/EDC gel I.M.; and Group D was treated with a mixture of Gentamicin and HA/CMC/EDC gel.
The animals were held for 48 hours, and assessed for mortality vs. the saline control.

Substance: Gentamicin
- % mortality (24 hr): 23.1%
- mortalities (M) (24 hr): 3
- surviving animals (A) (24 hr): 10
- % mortality (48 hr): 38.5%
- mortalities (M) (48 hr): 2
- surviving animals (A) (48 hr): 8
- % mortality (Total): 38.5%
- mortalities (M) (Total): 5
- surviving animals (A) (Total): 8
